This note sets out measurements from publication PMC10653770 (Journal of Enzyme Inhibition and Medicinal Chemistry, 2023).

Series [1] concerns SH − SY5Y cells. Type of series: cell-based, human. The conditions noted are these: 1 μM compound; Aβ1 − 42 20 μM, 48 h.
The next series in a line: in vitro. Conditions: human.
For series [2], the target named is AChE − induced Aβ1 − 42 aggregation (Homo sapiens, UniProt P22303). Type of series: biochemical. Conditions: co-incubation with Aβ1-42 and AChE for 24h; 0.1 μM and 1 μM compound.
Sequence of AChE − induced Aβ1 − 42 aggregation (P22303 32-614): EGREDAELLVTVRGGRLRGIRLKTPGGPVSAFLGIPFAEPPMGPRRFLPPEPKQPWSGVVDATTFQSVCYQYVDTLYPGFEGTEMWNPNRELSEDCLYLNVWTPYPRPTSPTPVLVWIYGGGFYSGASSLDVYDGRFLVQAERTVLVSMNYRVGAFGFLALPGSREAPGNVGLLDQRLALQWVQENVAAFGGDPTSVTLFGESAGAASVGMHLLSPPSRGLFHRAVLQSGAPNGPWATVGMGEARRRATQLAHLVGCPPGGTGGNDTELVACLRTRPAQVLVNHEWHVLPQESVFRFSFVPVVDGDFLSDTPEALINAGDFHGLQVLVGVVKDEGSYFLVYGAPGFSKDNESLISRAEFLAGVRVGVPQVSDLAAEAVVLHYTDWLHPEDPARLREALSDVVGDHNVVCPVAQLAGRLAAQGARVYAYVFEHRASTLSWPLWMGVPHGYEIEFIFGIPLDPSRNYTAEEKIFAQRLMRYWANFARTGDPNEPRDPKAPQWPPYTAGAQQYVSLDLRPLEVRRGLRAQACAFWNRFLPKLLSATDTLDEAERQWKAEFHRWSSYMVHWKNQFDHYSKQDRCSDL
Series [3] has as its system SH − SY5Y cells. Conditions: for toxicity towards SHSY5Y cells: within the tested concentration range.
The next series addresses hAChE (Homo sapiens, UniProt P22303). Put plainly: Kinetic profiling of AChE inhibition. Type of series: biochemical. Conditions: Lineweaver–Burk plot.

Sequence of hAChE (P22303 32-614): as above

As to `C=CCn1c2cc(OC(=O)CCCCN3CCN(Cc4ccccc4)CC3)ccc2c2ccnc(C)c21` [Compound 13, 9-allyl-1-methyl-9H-pyrido[3,4-b]indol-7-yl 5–(4-benzylpiperazin-1-yl)pentanoate], the “cellular recovery against Aβ1 − 42−induced damage” value in the series on SH − SY5Y cells [1] is recorded as “exceptional cellular recovery”. Besides, the viability at 10 µM in the series “in vitro” is above 79%. Further, the “AChE − induced Aβ1 − 42 aggregation” value in series [2] is listed as “significant reduction in Aβ1 − 42 aggregation”. Further, the “cytotoxicity in SHSY5Y cells” value in the series on SH − SY5Y cells [3] (0.1 to 1 μM, 48h incubation) is “negligible cytotoxicity”. For the same molecule, in the series on SH − SY5Y cells [3], the “toxicity towards SHSY5Y cells” value is “weak toxicity”. Besides, the “type of AChE inhibition” value on hAChE is given as “mixed − type inhibition”.

Turning to `C=CCn1c2cc(OC(=O)CCCCN3CCN(Cc4ccc(F)cc4)CC3)ccc2c2ccnc(C)c21` [Compound 17d, 9-allyl-1-methyl-9H-pyrido[3,4-b]indol-7-yl 5–(4-(4-fluorobenzyl)piperazin-1-yl)pentanoate], the viability at 10 µM in the series “in vitro” is above 79%. The “AChE − induced Aβ1 − 42 aggregation” value in series [2] was “significant reduction in Aβ1 − 42 aggregation”. Besides, the “toxicity towards SHSY5Y cells” value in the series with SH − SY5Y cells [3] was “weak toxicity”.
